# Entries after “also recorded” stand apart in the source; their conditions may differ. Read-outs that look alike come from different tables or passages of the source.
# T1: PTP1B (Homo sapiens, UniProt P18031)
# T1 sequence (P18031 1-321): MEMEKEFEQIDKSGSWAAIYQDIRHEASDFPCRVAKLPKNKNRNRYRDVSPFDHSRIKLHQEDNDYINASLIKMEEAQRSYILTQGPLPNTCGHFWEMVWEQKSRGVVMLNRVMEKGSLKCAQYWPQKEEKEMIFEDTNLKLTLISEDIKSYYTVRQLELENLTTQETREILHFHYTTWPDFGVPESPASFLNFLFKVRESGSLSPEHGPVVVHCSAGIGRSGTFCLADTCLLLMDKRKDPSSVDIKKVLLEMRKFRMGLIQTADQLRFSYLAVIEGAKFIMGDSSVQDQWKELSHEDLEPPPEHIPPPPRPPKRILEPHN
# B1: protein tyrosine phosphatase 1B (PTP1B), catalytic domain 1-321 (protein)
# chain: T1 sequence (P18031 1-321)
# Experiments:
# PTP1B [1] = biological target: T1, PTP1B; assay: melting temperatures determined with differential scanning fluorimetry; type: binding; conditions: n=3
# Description: (§1) Error bars denote standard error for n=3 technical replicates. […] Error bars denote standard deviation for n=3 technical replicates.
# 3CLpro = 3CLpro (Severe acute respiratory syndrome coronavirus 2, UniProt P0DTD1); assay: 3CLpro-mediated hydrolysis of FRET peptide Mca-[…](Dnp)K; type: biochemical, SARS-COV-2
# Description: Förster resonance energy transfer (FRET) peptides provide a facile means of assaying protease inhibitors. These peptides contain a fluorophore and a quencher separated by a protease recognition domain; peptide cleavage separates the fluorophore and quencher and increases fluorescence.
# For 3CLpro, a commercially available substrate was used: Mca-[…](Dnp)K (SEQ ID NO: 1), where Mca ((methoxycoumarin-4-yl) acetyl) was the fluorophore and 2,4-dinitrophenyl (Dnp) was the quencher. Using this assay, inhibition by eucalyptol and α-bisabolol (FIGS. 30B-30C, FIG. 56) was examined.
# SARS-COV-2 3CLpro = SARS-COV-2 3CLpro (Severe acute respiratory syndrome coronavirus 2, UniProt P0DTD1); assay: 3CLpro-catalyzed proteolysis of fluorogenic peptide substrate TSAVLQ_AFC; type: biochemical; conditions: mean and standard error
# PTP1B [2] = biological target: T1, PTP1B; assay: PTP1B-catalyzed hydrolysis of p-nitrophenyl phosphate (pNPP), in vitro kinetic assay; type: biochemical; conditions: for inhibition of PTP1B activity on pNPP relative to himachalol: 50 nM PTP1B, 5 mM pNPP, 2% or 10% DMSO; for Ki: PTP1B1-321
# Description: PTP1B was purified as described previously. Briefly, the E. coli BL21 (DE3) cells were transformed with a pET21b vector containing the catalytic domain of PTP1B (residues 1-321) modified with a 6× polyhistidine tag on its C-terminus. The cells were grown in 1-L cultures to an OD600 of 0.3-0.6 (37° C., 225 RPM), induced with 500 μM IPTG, and grown at 22° C. for 20 hours. The cells were lysed with B-PERII, and purified PTP1B by using desalting, nickel affinity, and anion exchange chromatography (HiPrep 26/10, HisTrap HP, and HiPrep Q HP, respectively; GE Healthcare). The final protein was stored (50 μM) in HEPES buffer (50 mM, pH 7.5, 0.5 mM TCEP) in 20% glycerol at −80° C.
# (§2) Inhibition was examined by FPP by measuring its influence on PTP1B-catalyzed hydrolysis of p-nitrophenylphosphate (pNPP). Briefly, 100-μL reactions were prepared comprising 50 nM PTP1B, 0.167-20 mM pNPP, and 75-150 μM terpenoids in 50 mM HEPES (pH=7.3) with 50 mM TCEP, 50 μg/mL BSA, and 2-10% DMSO. The reactions were initiated by adding pNPP, and the production of p-nitrophenol (pNP) was monitored by measuring absorbance at 405 nm every 10 s for 5 min (SpectraMax iD3 plate reader). When necessary, the solubility of the terpenoids in individual wells were assessed by plotting the A405 values for each well—including a no-inhibitor well—in a single read.
# Kinetic data was analyzed by using a custom Matlab script supplemented with a user-generated standard curve (e.g., a plot of absorbance at 405 nm vs. pNP concentration in μM, FIG. 15). This script removes datapoints outside of (i) the linear range of the standard curve and/or (ii) the initial rate regime, and it excludes datasets that contain fewer than 10 datapoints after these processing steps. The all datasets were fit using linear regression with Matlab's backslash operator. To determine the half maximal inhibitory concentration (IC50) of himachalol, kinetic models were evaluated by fitting them to standard models of inhibition (e.g., […], noncompetitive, […], and mixed inhibition). Briefly, the procedure included: (i) fitting an initial-rate measurements of pNPP hydrolysis with and without inhibitors, (ii) using the Akaike's Information Criterion (AIC) to compare the best-fit single parameter model to each alternative single-parameter model and accepting the “best-fit” model when the difference in AIC (Δi) exceeded 5 for all comparisons (when this criterion was not met, it was deemed that two or more single-parameter models may be indistinguishable), and (iii) using an F-test to compare a mixed inhibition model to the best-fit single-parameter model and accepting the mixed model if p<0.05. […] The MATLAB function “nlparci” was used to determine the confidence intervals of kinetic parameters, and those intervals were propagated to estimate confidence intervals for each IC50.
# Inhibition by FPP, a costly reagent, was examined with three modifications of the above assay: (i) pNPP concentration was held constant (5 mM). (ii) The 10% DMSO was replaced with 10% of a mixture of methanol: 10 mM NH4OH (7:3). (FPP was purchased as a 1.1 mg/mL solution in methanol: 10 mM NH4OH (7:3)). (ii) IC50 was estimated by using a linear fit to the initial rate data; 95% confidence intervals were propagated on the regression parameters generated using Matlab's “coefCI function”. This approach, which reflects the limited number of measurements afforded by the FPP stock (measurements which include very high and very low initial rates), may result in a greater error than a more standard approach for estimating IC50 (e.g., 4-parameter logistic curves) but nonetheless provides an order of magnitude estimate of potency.
# PTP1B [3] = biological target: T1, PTP1B; assay: fluorescence-based binding isotherms for BBR; parameters: binding of BBR to PTP1B in the presence of amorphadiene: dose or concentration left out as unconfirmed; conditions: for ΔFmax of BBR binding isotherm: ±SE
# Description: as §1
# [4] = biological target: RpoZ-MidT fusion with the DENVpro/WNVpro recognition site in the linker (UniProt P0A800)
# [5] = biological target: RpoZ-MidT fusion with AAAA_Ubiquitin_AAAA added to the linker (UniProt P0A800)
# [6] = biological target: RpoZ-MidT fusion with the 3CLpro recognition sequence in the linker (number of flanking alanines not stated) (UniProt P0A800)
# [7] = biological target: RpoZ-MidT fusion with the HIV-1 protease recognition sequence in the linker (number of flanking alanines not stated) (UniProt P0A800)
# [8] = biological target: RpoZ-MidT fusion with the PLpro recognition site LRGG in the linker (UniProt P0A800)
# [9] = biological target: kinase substrate domain (MidT) fused to the omega subunit of RNA polymerase (RpoZ), no protease recognition site in the linker (UniProt P0A800)
# [10] = solubility of terpenoids in kinetic assay wells (A405); type: physicochemical
# Description: as §2
# [11] = biological target: RpoZ-MidT fusion with the 3CLpro recognition sequence in the linker (number of flanking alanines not stated), P0A800
# [12] = biological target: RpoZ-MidT fusion with the HIV-1 protease recognition sequence in the linker (number of flanking alanines not stated), P0A800
# Chain of RpoZ-MidT fusion with the HIV-1 protease recognition sequence in the linker (number of flanking alanines not stated), P0A800 (P0A800 whole entry, looked up, the tested form may be a part): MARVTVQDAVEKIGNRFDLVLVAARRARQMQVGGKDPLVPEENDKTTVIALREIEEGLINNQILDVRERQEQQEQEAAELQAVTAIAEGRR
# Chain of RpoZ-MidT fusion with the DENVpro/WNVpro recognition site in the linker (P0A800 whole entry, looked up, the tested form may be a part): as above
# Chain of RpoZ-MidT fusion with the 3CLpro recognition sequence in the linker (number of flanking alanines not stated), P0A800 (P0A800 whole entry, looked up, the tested form may be a part): as above
# Chain of RpoZ-MidT fusion with the HIV-1 protease recognition sequence in the linker (number of flanking alanines not stated) (P0A800 whole entry, looked up, the tested form may be a part): as above
# Chain of RpoZ-MidT fusion with the PLpro recognition site LRGG in the linker (P0A800 whole entry, looked up, the tested form may be a part): as above
# Chain of RpoZ-MidT fusion with AAAA_Ubiquitin_AAAA added to the linker (P0A800 whole entry, looked up, the tested form may be a part): as above
# Chain of kinase substrate domain (MidT) fused to the omega subunit of RNA polymerase (RpoZ), no protease recognition site in the linker (P0A800 whole entry, looked up, the tested form may be a part): as above
# Chain of RpoZ-MidT fusion with the 3CLpro recognition sequence in the linker (number of flanking alanines not stated) (P0A800 whole entry, looked up, the tested form may be a part): as above
molecule,measurement,setting,value
O=C(O)C(=O)Nc1sc2c(c1C(=O)O)CCNC2 [TCS401],effect on melting temperature (stability) of PTP1B,PTP1B [1],do not
α-bisabolol,IC50,"3CLpro; FRET / fluorogenic peptide, mixture containing α-bisabolol, read-out: IC50 for 3CLpro",3.33 µM
same,IC50,"3CLpro; fit to percent inhibition, FIG. 30C, read-out: half-maximal inhibitory concentration (IC50) for 3CLpro",~3 µM
same,IC50,SARS-COV-2 3CLpro,30 to 80 µM
C=C(C)[C@@H]1CC[C@@H](C)[C@@H]2CCC(C)=C[C@@H]21 [amorphadiene],selectivity PTP1B versus TCPTP,PTP1B [2],more potent inhibitor of PTP1B than TCPTP
same,effect on melting temperature (stability) of PTP1B,PTP1B [1],do not
"CCc1oc2cc(S(=O)(=O)Nc3ccc(S(=O)(=O)Nc4nccs4)cc3)ccc2c1C(=O)c1cc(Br)c(O)c(Br)c1 [BBR, 3-(3,5-dibromo-4-hydroxybenzoyl)-2-ethyl-N-[4-[(2-thiazolylamino)sulfonyl]phenyl]-6-benzofuransulfonamide]",ΔFmax of BBR binding isotherm,PTP1B [3]; BBR alone,227000±13000
same,ΔFmax of BBR binding isotherm,PTP1B [3]; BBR with AD,195000±12000
same,ΔFmax of BBR binding isotherm,PTP1B [3]; BBR with TCS401,94000±2000
same,binding of BBR to PTP1B in the presence of amorphadiene,PTP1B [3]; presence of amorphadiene,not significantly disrupted
same,effect on melting temperature (stability) of PTP1B,PTP1B [1],destabilize PTP1B
Cc1cc(-c2c3ccccc3c(Br)c3sc(C)c(C)c23)cc(C)c1O[C@H](Cc1ccccc1)C(=O)O [Ertiprotafib],effect on melting temperature (stability) of PTP1B,PTP1B [1],destabilize PTP1B
CC(C)=CCC=C(C)C1CC=C(C)CC1 (stereo not drawn) [α-bisabolene],IC50,SARS-COV-2 3CLpro,186 ± 12 µM
CC12CCC(CC1)C(C)(C)O2 [eucalyptol],inhibitory effect on 3CLpro,"3CLpro; FRET peptide, FIG. 56",no inhibitory effect; also recorded: not an inhibitor
Non-structural protein 2B-3 protease complex from West Nile Virus (WNV NS2B-NS3),LuxAB luminescence screen of proteases against recognition sites,[4],WNVpro and DNVpro showed no activity in initial screens
CC1=C[C@@H]2C(=C(C)CC[C@H]2C(C)C)CC1 [(+)-8-cadinene],IC50,"PTP1B [2]; major product of terpene synthase A0A0C9VSL7, error 95 CI, read-out: IC50 (PTP1B), estimated",165 µM
HIV-1 protease,LuxAB luminescence response to protease overexpression,[5],"HIVpro appeared functional with all sites, which was behavior consistent with its reported promiscuity"
same,LuxAB luminescence response to protease overexpression,[6],"HIVpro appeared functional with all sites, which was behavior consistent with its reported promiscuity"
same,LuxAB luminescence response to protease overexpression,[7],"HIVpro appeared functional with all sites, which was behavior consistent with its reported promiscuity"
same,LuxAB luminescence response to protease overexpression,[8],"HIVpro appeared functional with all sites, which was behavior consistent with its reported promiscuity"
Non-structural protein 2B-3 protease complex from Dengue virus 2 (DENV2 NS2B-NS3),LuxAB luminescence screen of proteases against recognition sites,[4],WNVpro and DNVpro showed no activity in initial screens
"CC(C)=CCC/C(C)=C/CC/C(C)=C/CO[P@@](=O)(O)OP(=O)(O)O (stereo in doubt) [FPP, farnesyl pyrophosphate]",IC50,"PTP1B [2]; [PTP1B]=50 nM, [pNPP]=5 mM, linear fit, rough estimate, read-out: IC50 for PTP1B",~200 µM
3-chymotrypsin-like protease (3CLpro) of SARS-CoV-2,"dynamic range (DR, the change in luminescence caused by protease expression)",[9],10.7±1.2 vs. 6.3±0.9
C=C1C=CC(C)(C)CCCC(C)=CCC1 [γ-humulene],inhibition of PTP1B activity on pNPP relative to himachalol,PTP1B [2],less inhibitory
same,solubility in kinetic assay,[10]; precluded IC50 estimates,low solubilities
CC1=C[C@H]2[C@@H](CC1)[C@](C)(O)CCCC2(C)C [himachalol],Ki,"PTP1B [2]; fit of competitive model, read-out: Ki, competitive model",24.4 µM
same,Ki,"PTP1B [2]; fit of mixed model, read-out: Ki,c, mixed model",161 µM
same,Ki,"PTP1B [2]; fit of mixed model, read-out: Ki,u, mixed model",305 µM
same,Ki,"PTP1B [2]; fit of noncompetitive model, marked *, read-out: Ki, noncompetitive model (best fit)",280 µM
same,Ki,"PTP1B [2]; fit of uncompetitive model, read-out: Ki, uncompetitive model",253 µM
same,IC50,"PTP1B [2]; PTP1B-catalyzed hydrolysis of pNPP, estimated from best-fit kinetic model at 20 mM pNPP, read-out: IC50 for PTP1B",280 ± 59 µM
CC1=C[C@H]2C(=C(C)CCCC2(C)C)CC1 [β-himachalene],inhibition of PTP1B activity on pNPP relative to himachalol,PTP1B [2],less inhibitory
same,solubility in kinetic assay,[10],low solubilities
B1,dynamic range of LuxAB luminescence between active and inactive PTP1B,[11],"retained the desired B2H activity (e.g., PTP1B inactivation increased luminescence) at a 4- to 5-fold dynamic range"
same,dynamic range of LuxAB luminescence between active and inactive PTP1B,[12],"retained the desired B2H activity (e.g., PTP1B inactivation increased luminescence) at a 4- to 5-fold dynamic range"

# — patent US20250034551A1, “METHODS AND SYSTEMS FOR HIGH-THROUGHPUT BIOCHEMICAL SCREENS” (THINK BIOSCIENCE, INC., priority 2021, published 2025)
